Data reported in patent publication US9857359B2, “Methods for determining drug efficacy using cereblon-associated proteins” (CELGENE CORPORATION, priority 2012, dated 2018).

Columns and labels:
[1] = tested on: Aiolos; assay: Aiolos protein inhibition in myeloma cells; assay type: cell-based
[2] = tested on: p21^WAF-1; assay: B-CLL / CD40L fibroblast co-culture Western blot, p21^WAF-1; assay type: cell-based, human; details: 72 hours, 10 μM lenalidomide, 1 μM pomalidomide, 0.1 μM Compound A, 0.1 μM Compound B, 3 patient samples
Protocol: (§1) Human primary B-CLL cells viably frozen from patient samples were obtained from AllCells (Emeryville, Calif., USA) and maintained in Roswell Park Memorial Institute (RPMI)-1640 medium with 10% fetal bovine serum (FBS) (Invitrogen, Carlsbad, Calif.). CD40L expressing fibroblasts (gift from Angela Piperno, Rockefeller University, NY, N.Y.) were maintained in DMEM medium supplied with 20% FBS. Prior to co-cultures CD40L fibroblasts were pre-treated for 3 hours with 10 μg/mL Mytomicin C followed by a wash with PBS and Accutase dissociation. Cells were then re-plated at a density of 6×10^5 cells per well (24 well per plate format) and grown overnight to allow formation of monolayer. Defrosted viable primary B-CLL patient cells were pre-stained with CFSE reagent (Vibrant CFDA SE Cell Tracer Kit, Invitrogen, Carlsbad, Calif., USA) according to a manufacturer's supplied protocol and plated at 0.8-1×10^6 cells per well on the pre-formed monolayer of CD40L fibroblasts in RPMI 1640 medium supplemented with 10% FBS, 5 ng/mL rh-IL4 and 10 ng/mL rh-IL10 (Peprotech, USA). For long term cultures, half of the culture media was renewed every three days. Alternatively, for other assays, B-CLL cells were co-cultured on CD40L without being pre-stained.
(§2) Effects of compound treatment on CRBN, Aiolos, p21^WAF-1 and IRF4 were evaluated in 3 different patient cell samples (FIG. 56A). The three patient samples show similar expression levels of CRBN protein (compare lane 1 of the 3 Western blots in FIG. 56A; samples were run in same membrane even though gels are presented as 3 independent pictures in the figure). […] The effects on p21, IRF4 and Aiolos are consistent with the cell cycle arrest and inhibition of proliferation observed with compound treatment.

[3] = tested on: Aiolos; assay: Aiolos expression by western blot at 6 hours (FIG. 37); assay type: cell-based; details: 6 hours after the treatment, with varying degrees
[4] = tested on: Aiolos; assay: Aiolos protein level in B cells from CLL patients and healthy subjects; assay type: cell-based, human; details: B cells obtained from CLL patients as well as healthy subjects
[5] = molecular target: CRBN (Homo sapiens, UniProt Q96SW2); assay: B-CLL / CD40L fibroblast co-culture Western blot, CRBN; assay type: cell-based; parameters: endogenous in cells; host or cells: primary B-CLL patient cells co-cultured with CD40L-expressing fibroblasts; details: 72 hours, 10 μM lenalidomide, 1 μM pomalidomide, 0.1 μM Compound A, 0.1 μM Compound B, 3 patient samples
CRBN, sequence (Q96SW2 whole entry): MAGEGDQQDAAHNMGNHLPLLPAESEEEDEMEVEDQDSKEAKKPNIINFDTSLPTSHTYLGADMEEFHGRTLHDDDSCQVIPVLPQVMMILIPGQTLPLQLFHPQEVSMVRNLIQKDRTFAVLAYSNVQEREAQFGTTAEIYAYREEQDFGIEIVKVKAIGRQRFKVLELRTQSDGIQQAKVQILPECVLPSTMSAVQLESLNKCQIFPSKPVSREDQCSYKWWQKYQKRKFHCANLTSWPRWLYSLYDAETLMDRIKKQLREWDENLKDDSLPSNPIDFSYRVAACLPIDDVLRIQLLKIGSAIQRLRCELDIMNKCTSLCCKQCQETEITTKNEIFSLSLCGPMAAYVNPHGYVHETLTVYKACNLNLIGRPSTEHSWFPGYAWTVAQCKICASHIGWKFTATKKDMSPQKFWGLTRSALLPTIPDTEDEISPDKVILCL
Protocol: (§3) CD40L expressing fibroblasts (gift from Angela Piperno, Rockefeller University, NY, N.Y.) were maintained in DMEM medium supplied with 20% FBS. Prior to co-cultures CD40L fibroblasts were pre-treated for 3 hours with 10 μg/mL Mytomicin C followed by a wash with PBS and Accutase dissociation. Cells were then re-plated at a density of 6×10^5 cells per well (24 well per plate format) and grown overnight to allow formation of monolayer. […] For long term cultures, half of the culture media was renewed every three days. Alternatively, for other assays, B-CLL cells were co-cultured on CD40L without being pre-stained.
(§4) Effects of compound treatment on CRBN, Aiolos, p21^WAF-1 and IRF4 were evaluated in 3 different patient cell samples (FIG. 56A).

[6] = tested on: Aiolos; assay: B-CLL / CD40L fibroblast co-culture, Aiolos (Western blot, flow cytometry); assay type: cell-based, human; details: for Aiolos protein level: B-CLL co-culture, 72 hours, 10 μM lenalidomide, 1 μM pomalidomide, 0.1 μM Compound A, 0.1 μM Compound B, 3 patient samples; for Dose dependence of Aiolos inhibition by flow cytometry: three different B-CLL patient co-culture samples
Protocol: as §3, §4

[7] = tested on: IRF4; assay: B-CLL / CD40L fibroblast co-culture Western blot, IRF4; assay type: cell-based, human; details: 72 hours, 10 μM lenalidomide, 1 μM pomalidomide, 0.1 μM Compound A, 0.1 μM Compound B, 3 patient samples
Protocol: as §1, §2

[8] = tested on: Ikaros; assay: Ikaros expression by western blot at 6 hours (FIG. 37); assay type: cell-based; details: 6 hours after the treatment, with varying degrees
[9] = tested on: Aiolos; assay: Aiolos Western blotting of primary human T cells; assay type: cell-based; details: 6 hours and 24 hours
Protocol: Primary T cells from up to 3 donors were isolated from human leukocytes (Blood Center of New Jersey, East Orange, N.J.) by centrifugation through FICOLL® following the ROSETETTESEP™ protocol (Stem Cell Technologies, Vancouver, Canada). Purified T cells were stimulated with anti-CD3 Antibody (Ebioscience, San Diego, Calif.), drug treated for six hours, harvested and Aiolos and Ikaros protein expression was determined by immunoblot analysis using antibodies against Aiolos (Santa Cruz, Dallas, Tex.) and Ikaros (Millipore, Billerica, Mass.) with our without blocking peptide.

Q: Which Aiolos expression [1] does the source give for `Cc1nc2cccc(N)c2c(=O)n1C1CCC(=O)NC1=O` (centres unmarked) [Compound A, 3-(5-amino-2-methyl-4-oxo-4H-quinazolin-3-yl)-piperidine-2,6-dione] here?
A: Its Aiolos expression is “showed inhibitory effect on Aiolos expression”.

Q: What about the “Potency in Aiolos protein inhibition relative to Len” value [1] of the same compound?
A: Its value is “higher potency than Len”.

Q: And the “p21^WAF-1 protein level” value [2]?
A: Its value is “upregulated”.

Q: What about the Aiolos expression [3] of the same compound?
A: Its Aiolos expression is “inhibited the expression of both Aiolos and Ikaros”.

Q: And the Aiolos expression [4]?
A: Its Aiolos expression is “inhibit Aiolos expression”.

Q: What about the CRBN protein levels [5] of the same compound?
A: The CRBN protein levels was “do not affect CRBN protein levels or in some samples induce slight increased of CRBN levels”.

Q: What about the Aiolos protein level [6] of the same compound?
A: The Aiolos protein level was “down regulated”.

Q: And the “Dose dependence of Aiolos inhibition by flow cytometry” value (shortened to “Dose dependence of Aiolos inhibition”) [6]?
A: The value was “dose-dependent inhibition of Aiolos”.

Q: What about the IRF4 protein level [7] of the same compound?
A: The IRF4 protein level was “down regulated”.

Q: And the Ikaros expression [8]?
A: The Ikaros expression was “inhibited the expression of both Aiolos and Ikaros”.

Q: And the Aiolos expression [9]?
A: Its Aiolos expression is “showed an inhibitory effect on Aiolos expression”.

Q: How did the Aiolos expression [1] turn out when `O=C1CC[C@H](N2Cc3c(OCc4ccc(CN5CCOCC5)cc4)cccc3C2=O)C(=O)N1` [Compound B, 3-(4-((4-(morpholinomethyl)benzyl)oxy)-1-oxoisoindolin-2-yl)piperidine-2,6-dione] was run?
A: Its Aiolos expression is “showed inhibitory effect on Aiolos expression”.

Q: What about the “Potency in Aiolos protein inhibition relative to Len” value [1] of the same compound?
A: Its value is “higher potency than Len”.

Q: And the “p21^WAF-1 protein level” value [2]?
A: The value was “upregulated”.

Q: And the Aiolos expression [3]?
A: Its Aiolos expression is “inhibited the expression of both Aiolos and Ikaros”.

Q: What about the Aiolos expression [4] of the same compound?
A: The Aiolos expression was “inhibit Aiolos expression”.

Q: What about the CRBN protein levels [5] of the same compound?
A: Its CRBN protein levels is “do not affect CRBN protein levels or in some samples induce slight increased of CRBN levels”.

Q: What about the Aiolos protein level [6] of the same compound?
A: Its Aiolos protein level is “down regulated”.

Q: What about the “Dose dependence of Aiolos inhibition” value [6] of the same compound?
A: Its value is “dose-dependent inhibition of Aiolos”.

Q: What about the IRF4 protein level [7] of the same compound?
A: Its IRF4 protein level is “down regulated”.

Q: What about the Ikaros expression [8] of the same compound?
A: Its Ikaros expression is “inhibited the expression of both Aiolos and Ikaros”.

Q: What about the Aiolos expression [9] of the same compound?
A: Its Aiolos expression is “showed an inhibitory effect on Aiolos expression”.

Q: What does the source list for `Nc1cccc2c1CN(C1CCC(=O)NC1=O)C2=O` (centres unmarked) [lenalidomide]?
A: p21^WAF-1 protein level [2]: upregulated; IRF4 protein level [7]: down regulated

Q: Which Aiolos expression [1] does the source give for `Nc1cccc2c1C(=O)N(C1CCC(=O)NC1=O)C2=O` (centres unmarked) [pomalidomide, reference compound] here?
A: Its Aiolos expression is “showed inhibitory effect on Aiolos expression”.

Q: What about the “Potency in Aiolos protein inhibition relative to Len” value [1] of the same compound?
A: The value was “higher potency than Len”.

Q: And the “p21^WAF-1 protein level” value [2]?
A: Its value is “upregulated”.

Q: What about the Aiolos expression [3] of the same compound?
A: The Aiolos expression was “inhibited the expression of both Aiolos and Ikaros”.

Q: What about the Aiolos expression [4] of the same compound?
A: Its Aiolos expression is “inhibit Aiolos expression”.

Q: What about the CRBN protein levels [5] of the same compound?
A: The CRBN protein levels was “do not affect CRBN protein levels or in some samples induce slight increased of CRBN levels”.

Q: And the Aiolos protein level [6]?
A: The Aiolos protein level was “down regulated”.

Q: And the “Dose dependence of Aiolos inhibition” value [6]?
A: The value was “dose-dependent inhibition of Aiolos”.

Q: And the IRF4 protein level [7]?
A: Its IRF4 protein level is “down regulated”.

Q: What about the Ikaros expression [8] of the same compound?
A: Its Ikaros expression is “inhibited the expression of both Aiolos and Ikaros”.

Q: And the Aiolos expression [9]?
A: The Aiolos expression was “showed an inhibitory effect on Aiolos expression”.
